The test system of series [1] is S. Typhimurium SL1344 (sifB::gfp) in RAW 264.7 macrophages. Description: SAFIRE macrophage assay: intracellular bacterial load (GFP signal within macrophages). It is filed as cell-based, Salmonella enterica serotype Typhimurium. Particulars: 'Toxic' given instead of a score. The text has this:
(§1) In SAFIRE, we used MATLAB software to count the number of macrophages that remain adherent and retain the red fluorescence of MitoTracker, an indicator of voltage across the mitochondrial inner membrane. MATLAB then calculates the signal from bacteria (green fluorescent protein [GFP]) that overlaps with macrophages, as defined by MitoTracker, to estimate bacterial load. […] For example, we observed that the 6-trifluoropyrimidin-2-yl group on the right-hand side of EPM35 is apparently toxic to macrophages. Non-toxic analogs that reduced bacterial load by at least 60% at 5 µM and 25 µM in SAFIRE, as compared with DMSO, progressed and were evaluated in SAFIRE across eight or more concentrations, ranging from 0.001 µM to 50 µM (n = 2). […] Each of the top 13 analogs had at least an eightfold increase in potency and were not toxic for macrophages at 50 µM in the SAFIRE assay (Fig. 1C).
(§2) As previously described ([18]), RAW 264.7 macrophages (between passages 1 and 6) were grown in complete Dulbecco’s modified Eagle’s medium (DMEM) to approximately 70% to 90% confluence, scraped, washed, resuspended, diluted to 5 × 10^4 in 100 µL, and seeded in black, 96-well, glass-bottomed plates (Brooks Life Sciences catalog number MGB096-1-2-LG-L) at 37°C with 5% CO2. Twenty-four hours later, bacteria grown overnight in LB were diluted into 50 µL phosphate buffered saline (PBS) and added to a final concentration of 1 × 10^7 S. Typhimurium SL1344 (sifB::gfp) per milliliter ([78]) for an approximate multiplicity of infection of 30 bacteria per macrophage cell. Forty-five minutes after bacterial addition, gentamicin (Sigma catalog number G1264) was added to a final concentration of 40 µg/mL to inhibit the growth of remaining extracellular bacteria. Two hours after infection, gentamicin-containing medium was removed and replaced with 200 µL fresh DMEM with compound or DMSO (Sigma catalog number 276855) to the stated final concentrations. At 17.5 h after infection, PBS containing MitoTracker Red CMXRos (Life Technologies catalog number M7512), a vital dye for mitochondrial electric potential, was added to a final concentration of 100 nM. At 18 h after infection, 16% paraformaldehyde was added to a final concentration of 4% and incubated at room temperature for 15 min. Cells were washed twice with PBS and stained for 20 min with 1 µM 4′,6-diamidino-2-phenylindole (DAPI), a vital dye for double-stranded DNA, and stored in 90% glycerol in PBS until imaging. Samples were imaged in six fields of view per well using a semiautomated Yokogawa CellVoyager CV1000 confocal scanner system with a 20×, 0.75-numerical aperture (NA) objective. A MATLAB algorithm calculated bacterial accumulation (GFP fluorescence) within macrophages, as defined by DAPI and MitoTracker Red. GFP^+ macrophage area was defined as the number of GFP-positive pixels per macrophage divided by the total number of pixels per macrophage, averaged across all macrophages in the field ([34]).

A further series deals with RAW 264.7 macrophages. Description: SAFIRE macrophage assay: host toxicity (adherent macrophage count, morphology). It counts as cell-based.
Source text: as §1, §2

SMILES strings stand for the structures. Values joined by “and” are separate entries in the source; they are usually repeats but may differ in a detail not shown here. Equal values may be shown once.

With `OC(COc1ccc(Cl)c(Cl)c1)CN1CCOC2(CCOCC2)C1` (stereo not shown) [CU027], in series [1], the “5 uM Avg Antibacterial Score” value was 107 and the “25 uM Avg Antibacterial Score” value is recorded as 95. For the same compound, in the series with RAW 264.7 macrophages, the “5 uM Avg Cell # Score” value is 58 and the “25 uM Avg Cell # Score” value amounted to 104.
Turning to `OC(COc1ccc(Cl)c(Cl)c1)CN1CCC(NC2CC2)C1` (stereo not shown) [CU028], in series [1], the “5 uM Avg Antibacterial Score” value is reported as 88 and the “25 uM Avg Antibacterial Score” value was 41. For the same compound, in the series with RAW 264.7 macrophages, the “5 uM Avg Cell # Score” value stood at 85 and the “25 uM Avg Cell # Score” value is 134.
In the same order, the values of `OC(COc1ccc(Cl)c(Cl)c1)CN1CCC(N2CCOCC2)C1` (stereo not shown) [CU029] are 105, 63, 75 and 146.
In the same order, the values of `OC(COc1ccc(Cl)c(Cl)c1)CN1CCCC(N2CCOCC2)C1` (stereo not shown) [CU030] are 102, 45, 57 and 126.
Turning to `CC(C)(C)OC(=O)NC1CCN(CC(O)COc2ccc(Cl)c(Cl)c2)C1` (stereo not shown) [CU031], in series [1], the “5 uM Avg Antibacterial Score” value was determined as 102 and the “25 uM Avg Antibacterial Score” value is “Toxic”. For the same compound, in the series on RAW 264.7 macrophages, the “5 uM Avg Cell # Score” value turned out to be 88 and the “25 uM Avg Cell # Score” value came to 140.
In the same order, the values of `CC(=O)NC1CCN(CC(O)COc2ccc(Cl)c(Cl)c2)C1` (stereo not shown) [CU033] are 106, 72, 79 and 110.
In the same order, the values of `OC(COc1ccccc1)CN1CCC(Nc2nccc(C(F)(F)F)n2)CC1` (stereo not shown) [CU034] are 99, “Toxic”, 86 and 57.
In the same order, the values of `COc1ccc(OCC(O)CN2CCC(Nc3nccc(C(F)(F)F)n3)CC2)cc1` (stereo not shown) [CU036] are 102, 24, 54 and 120.
Consider `OC(COc1ccc(F)cc1)CN1CCC(Nc2nccc(C(F)(F)F)n2)CC1` (stereo not shown) [CU037], for which, in series [1], the “5 uM Avg Antibacterial Score” value came out at 106 and the “25 uM Avg Antibacterial Score” value is listed as 23. In addition, in the series with RAW 264.7 macrophages, the “5 uM Avg Cell # Score” value is 74 and the “25 uM Avg Cell # Score” value is on record as 117.
In the same order, the values of `OC(COc1ccc(Cl)cc1Cl)CN1CCC(Nc2nccc(C(F)(F)F)n2)CC1` (stereo not shown) [CU038] are 95, “Toxic”, 85 and 181.
In the same order, the values of `OC(COc1ccc(F)cc1F)CN1CCC(Nc2nccc(C(F)(F)F)n2)CC1` (stereo not shown) [CU039] are 107, 13, 90 and 145.
In the same order, the values of `OC(COc1ccccc1Cl)CN1CCC(Nc2nccc(C(F)(F)F)n2)CC1` (stereo not shown) [CU040] are 109, 19, 84 and 114.
With `N#Cc1ccc(OCC(O)CN2CCC(Nc3nccc(C(F)(F)F)n3)CC2)cc1` (stereo not shown) [CU041], in series [1], the “5 uM Avg Antibacterial Score” value is 106 and the “25 uM Avg Antibacterial Score” value is given as 23. Further, in the series with RAW 264.7 macrophages, the “5 uM Avg Cell # Score” value is listed as 85 and the “25 uM Avg Cell # Score” value was 78.
For the compound `OC(COc1ccc(Cl)c(Cl)c1)CN1CCC(Nc2ncccn2)CC1` (stereo not shown) [CU042], in series [1], the “5 uM Avg Antibacterial Score” value is recorded as 105 and the “25 uM Avg Antibacterial Score” value worked out at 23. For the same compound, in the series with RAW 264.7 macrophages, the “5 uM Avg Cell # Score” value worked out at 77 and the “25 uM Avg Cell # Score” value is 90.
In the same order, the values of `OC(COc1ccccc1)CN1CCC(Nc2ncccn2)CC1` (stereo not shown) [CU043] are 106, 81, 69 and 107.
Regarding `OC(COc1ccc(Cl)cc1)CN1CCC(Nc2ncccn2)CC1` (stereo not shown) [CU044], in series [1], the “5 uM Avg Antibacterial Score” value worked out at 91 and the “25 uM Avg Antibacterial Score” value is on record as 36. For the same compound, in the series with RAW 264.7 macrophages, the “5 uM Avg Cell # Score” value is 84 and the “25 uM Avg Cell # Score” value turned out to be 100.
As for `OC(COc1ccc(F)cc1)CN1CCC(Nc2ncccn2)CC1` (stereo not shown) [CU045], in series [1], the “5 uM Avg Antibacterial Score” value turned out to be 101 and the “25 uM Avg Antibacterial Score” value was found to be 99. Also, in the series with RAW 264.7 macrophages, the “5 uM Avg Cell # Score” value amounted to 86 and the “25 uM Avg Cell # Score” value was found to be 109.
In the same order, the values of `COc1ccc(OCC(O)CN2CCC(Nc3ncccn3)CC2)cc1` (stereo not shown) [CU046] are 103, 75, 74 and 173.
Consider `OC(COc1ccc(Cl)cc1Cl)CN1CCC(Nc2ncccn2)CC1` (stereo not shown) [CU047], for which, in series [1], the “5 uM Avg Antibacterial Score” value is given as 107 and the “25 uM Avg Antibacterial Score” value was found to be 26. In the series on RAW 264.7 macrophages, the “5 uM Avg Cell # Score” value worked out at 72 and the “25 uM Avg Cell # Score” value amounted to 141.
As to `OC(COc1ccc(F)cc1F)CN1CCC(Nc2ncccn2)CC1` (stereo not shown) [CU048], in series [1], the “5 uM Avg Antibacterial Score” value came out at 105 and the “25 uM Avg Antibacterial Score” value worked out at 95. Besides, in the series with RAW 264.7 macrophages, the “5 uM Avg Cell # Score” value is 85 and the “25 uM Avg Cell # Score” value is 159.
Take `OC(COc1ccccc1Cl)CN1CCC(Nc2ncccn2)CC1` (stereo not shown) [CU049]: in series [1], the “5 uM Avg Antibacterial Score” value turned out to be 104 and the “25 uM Avg Antibacterial Score” value was 61. Moreover, in the series with RAW 264.7 macrophages, the “5 uM Avg Cell # Score” value worked out at 84 and the “25 uM Avg Cell # Score” value amounted to 121.
Turning to `N#Cc1ccc(OCC(O)CN2CCC(Nc3ncccn3)CC2)cc1` (stereo not shown) [CU050], in series [1], the “5 uM Avg Antibacterial Score” value was 101 and the “25 uM Avg Antibacterial Score” value was 95. Besides, in the series with RAW 264.7 macrophages, the “5 uM Avg Cell # Score” value is 102 and the “25 uM Avg Cell # Score” value came out at 113.
In the same order, the values of `OC(COc1ccc(Cl)c(Cl)c1)CN1CCC(Nc2nccs2)CC1` (stereo not shown) [CU051] are 58, 45, 123 and 105.
In the same order, the values of `OC(COc1ccccc1)CN1CCC(Nc2nccs2)CC1` (stereo not shown) [CU052] are 106, 93, 110 and 165.
In the case of `OC(COc1ccc(Cl)cc1)CN1CCC(Nc2nccs2)CC1` (stereo not shown) [CU053], in series [1], the “5 uM Avg Antibacterial Score” value is recorded as 101 and the “25 uM Avg Antibacterial Score” value came out at 42. Moreover, in the series on RAW 264.7 macrophages, the “5 uM Avg Cell # Score” value is recorded as 127 and the “25 uM Avg Cell # Score” value is 140.
In the same order, the values of `COc1ccc(OCC(O)CN2CCC(Nc3nccs3)CC2)cc1` (stereo not shown) [CU054] are 91, 74, 98 and 96.
`NC1CN(CC(O)COc2ccc(Cl)c(Cl)c2)C1` (stereo not shown) [CU150]: in the series on RAW 264.7 macrophages, the “5 uM Avg Cell # Score” value was 112 and 118; the “25 uM Avg Cell # Score” value was 112 and 143.

The record behind these values is publication PMC10746280, “Bacterial efflux pump modulators prevent bacterial growth in macrophages and under broth conditions that mimic the host environment” (mBio, 2023).
